Measurements reported in patent US4161542A, “Heart active compounds” (priority 1975, dated 1979).
Like-named read-outs stand apart in the source and are kept apart here.

What was measured:
[1] = target: T1, α-receptor (Rattus norvegicus, UniProt P43140); experiment: α-blocking activity in isolated rat vas deferens (antagonism of noradrenaline contraction)
T1 construct: from tissue; host or cells: isolated rat vas deferens
T1 sequence (P43140 1-466): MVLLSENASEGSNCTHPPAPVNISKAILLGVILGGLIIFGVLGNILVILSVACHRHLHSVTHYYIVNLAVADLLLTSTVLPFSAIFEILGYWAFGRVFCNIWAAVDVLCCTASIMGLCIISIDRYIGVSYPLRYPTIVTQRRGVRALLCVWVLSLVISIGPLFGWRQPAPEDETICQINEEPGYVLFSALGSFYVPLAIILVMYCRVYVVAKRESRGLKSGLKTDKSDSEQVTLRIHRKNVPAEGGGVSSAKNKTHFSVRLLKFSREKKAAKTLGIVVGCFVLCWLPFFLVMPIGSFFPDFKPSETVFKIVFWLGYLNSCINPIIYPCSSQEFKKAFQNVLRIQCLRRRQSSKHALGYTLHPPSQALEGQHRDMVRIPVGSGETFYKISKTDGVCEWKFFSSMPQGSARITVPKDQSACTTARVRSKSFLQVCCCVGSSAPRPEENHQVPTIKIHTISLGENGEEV
Procedure: α-blocking activity was tested in isolated rat vas deferens. Rats were decapitated and the vas deferens was immediately dissected out and mounted in an oxygenated Krebs Ringer solution at 37° C. Noradrenaline administered to the bath caused α-receptor mediated contraction of vas deferens, which was recorded with an isometric tension transducer. Dose response curves to noradrenaline were constructed before and after three increasing doses of the test compound. By using Schildt plots pA2 values for α-receptor blockade were obtained. By definition pA2 =-log concentration of an antagonist (in this case, the test compound) which requires that the concentration of the related agonist (in this case noradrenaline) be doubled in the presence of the antagonist in order to produce the same effect as the agonist caused in the absence of the antagonist.

[2] = test system: β-receptors; experiment: β-blocking activity in reserpinized anesthetized cat (block of isoprenaline effect on heart rate and peripheral resistance; intrinsic activity); assay type: in vivo; details: for Intrinsic activity (increase in heart rate relative to basal): after final dose giving 100% blockade of isoprenaline response; for Block of isopren. ED50 HR (heart rate blockade) / Block of isopren. ED50 PR (peripheral resistance blockade): cumulative doses, vs isoprenaline i.v.; for Block of isopren. ED50 PR (peripheral resistance blockade): peripheral vascular resistance
Procedure: Anesthetized cats (males and females weighing 2.5-3.5 kg) were pretreated with reserpine (5 mg/kg bodyweight administered intramuscularly) about 16 hours before the experiments. The animals were pretreated with reserpine in order to eliminate the endogenous sympathetic control of heart rate and vascular smooth muscle tone. The cats were anesthetized with pentobarbital (30 mg/kg bodyweight administered i.p.) and artificially ventilated with room air. A bilateral vagotomy was performed in the neck. Blood pressure was obtained from a cannulated carotid artery and heart rate was registered from a cardiotachometer, triggered by the electrocardiogram (ECG). One […] artery was cannulated and perfused with the cat's own blood, delivered at a constant flow rate with a Watson Marlow roller pump. The perfusion pressure was recorded with a Statham pressure transducer. The blood flow rate was so adjusted that the initially recorded perfusion pressure was slightly above the systemic arterial mean blood pressure. In the studied hind limb the paw was excluded from the circulation by a tight ligature. An isoprenaline dose administered intravenously was established giving a submaximal heart rate (HR) increase and a submaximal decrease of peripheral vascular resistance (PR). The latter is shown as a drop of perfusion pressure.
To start the test, an initial dose of the test compound is injected into the animal. Ten minutes afterward the predetermined dose of isoprenaline is injected and the effect of the isoprenaline on the heart rate and peripheral resistance is noted. By comparing these observations with the normal response of the test animal to the predetermined dose of isoprenaline, the percent blockade of the HR and PR caused by the initial dose of test compound is calculated. The experiment is repeated with logrithmically increasing doses of the test compound (on a cumulative basis), alternating with the predetermined dose of isoprenaline every 10 minutes.
After the final dose of the test compound is administered--which is sufficient to cause a 100% blockade of the isoprenaline response--the intrinsic activity of the test compound is noted as the increase in heart rate relative to the basal heart rate of the test animal before the experiment began.

[3] = isolated rat vas deferens, Krebs Ringer, 37° C., noradrenaline agonist, Schildt plot, read-out: pA2 (α-receptor blockade) (converted)

Row | Compound | Kb [1] [nM] | Intrinsic activity (increase in heart rate relative to basal) [2] | Block of isopren. ED50 HR (heart rate blockade) [2] [mg/kg] | Block of isopren. ED50 PR (peripheral resistance blockade) [2] [mg/kg] | Kb [1, 3] [nM]
1 | CCc1ccccc1OCC(O)CNC(C)Cc1ccc(O)cc1 (stereo not shown) [Ex. 2, 3-[2-(4-hydroxyphenyl)-1-methylethylamino]-1-o-ethylphenoxy-propanol-2] | 63.1 | +32 beats/min. | 0.11 | 0.15 | 
2 | CC(C)NCC(O)COc1cccc2ccccc12 (stereo not shown) [Propranolol, propranolol, reference compound] |  | 0 beats/min. | 0.1 | 0.1 | 
3 | CCc1ccccc1OCC(O)CNC(C)(C)Cc1ccc(O)cc1 (stereo not shown) [Ex. 6, 3-[2-(4-hydroxyphenyl)-1,1-dimethylethylamino]-1-o-ethylphenoxy-propanol-2] |  | +38 beats/min. | 0.04 | 0.04 | 158
4 | C=CCc1ccccc1OCC(O)C(CC)NC(C)Cc1ccc(O)cc1 (stereo not shown) [Ex. 12, 3-ethyl-3-[2-(4-hydroxyphenyl)-1-methylethylamino]-1-o-allylphenoxy-propanol-2] |  |  | 5.1 | 3.3 | 251
5 | C=CCc1ccccc1OCC(O)C(C)NC(C)(C)Cc1ccc(O)cc1 (stereo not shown) [Ex. 14, 3-methyl-3-[2-(4-hydroxyphenyl)-1,1-dimethylethylamino]-1-o-allylphenoxy-propanol-2] |  | +3 beats/min. | 2.5 | 0.6 | 39.8
6 | Cc1cccc(OCC(O)CNC(C)Cc2ccc(O)cc2)c1 (stereo not shown) [Ex. 15, 3-[2-(4-hydroxyphenyl)-1-methylethylamino]-1-m-methylphenoxy-propanol-2] |  | +16 beats/min. | 0.3 | 0.9 | 6310
7 | CCCc1ccccc1OCC(O)CNC(C)Cc1ccc(O)cc1 (stereo not shown) [Ex. 16, 3-[2-(4-hydroxyphenyl)-1-methylethylamino]-1-o-propylphenoxy-propanol-2] |  | +35 beats/min. | 1.3 | 0.8 | 158
8 | C=CCc1ccccc1OCC(O)CNC(C)Cc1ccc(O)cc1 (stereo not shown) [Ex. 3, 3-[2-(4-hydroxyphenyl)-1-methylethylamino]-1-o-allylphenoxy-propanol-2] | 63.1 | +33 beats/min. | 0.7 | 1.1 | 
9 | Cc1ccccc1OCC(O)CNC(C)(C)Cc1ccc(O)cc1 (stereo not shown) [Ex. 5, 3-[2-(4-hydroxyphenyl)-1,1-dimethylethylamino]-1-o-methylphenoxy-propanol-2] |  | +62 beats/min. | 0.06 | 0.3 | 1580
10 | CCc1ccccc1OCC(O)C(C)NC(C)Cc1ccc(O)cc1 (stereo not shown) [Ex. 11, 3-methyl-3-[2-(4-hydroxyphenyl)-1-methylethylamino]-1-o-ethylphenoxy-propanol-2] |  | +18 beats/min. | 0.3 | 0.5 | 631
11 | COCCc1ccc(OCC(O)CNC(C)C)cc1 (stereo not shown) [Metoprolol, metoprolol, reference compound] |  | 0 beats/min. | 0.2 | 4.7 | 
12 | Cc1ccccc1OCC(O)C(C)NC(C)(C)Cc1ccc(O)cc1 (stereo not shown) [Ex. 13, 3-methyl-3-[2-(4-hydroxyphenyl)-1,1-dimethylethylamino]-1-o-methylphenoxy-propanol-2] |  | +9 beats/min. | 1.3 | 8.5 | 631
13 | Cc1cccc(OCC(O)CNC(C)Cc2ccc(O)cc2)c1C (stereo not shown) [Ex. 9, 3-[2-(4-hydroxyphenyl)-1-methylethylamino]-1-[2,3-dimethylphenoxy]-propanol-2] |  |  | 0.26 | 0.59 | 794
14 | Cc1ccccc1OCC(O)CNC(C)Cc1ccc(O)cc1 (stereo not shown) [Ex. 1, 3-[2-(4-hydroxyphenyl)-1-methylethylamino]-1-o-methylphenoxy-propanol-2] |  | +16 beats/min. | 0.07 | 0.07 | 158
15 | C#CCOc1ccccc1OCC(O)CNC(C)Cc1ccc(O)cc1 (stereo not shown) [Ex. 4, 3-[2-(4-hydroxyphenyl)-1-methylethylamino]-1-o-propargyloxyphenoxy-propanol-2] |  | +22 beats/min. | 0.12 | 0.35 | 251
16 | C=CCc1ccccc1OCC(O)CNC(C)(C)Cc1ccc(O)cc1 (stereo not shown) [Ex. 7, 3-[2-(4-hydroxyphenyl)-1,1-dimethylethylamino]-1-o-allylphenoxy-propanol-2] |  | +39 beats/min. | 0.09 | 0.06 | 398
17 | COc1ccccc1OCC(O)CNC(C)Cc1ccc(O)cc1 (stereo not shown) [Ex. 10, 3-[2-(4-hydroxyphenyl)-1-methylethylamino]-1-o-methoxyphenoxy-propanol-2] |  | +40 beats/min. | 0.04 | 0.5 | 398
